The values that follow come from patent EP1891105B1, “OXYNTOMODULIN ANALOGUES AND THEIR EFFECTS ON FEEDING BEHAVIOUR” (Imperial Innovations Limited, priority 2005, dated 2012).

“Also recorded” adds a separate entry of the source. Non-standard residues stand in square brackets, D forms with d. No end group written: not given here. *: point of attachment. Lauroyl = CCCCCCCCCCCC(=O)*

A short description of test [1]: Food intake of fasted mice after injection of peptide. It is filed as in vivo, C57BL/6 mice. As for the experimental part: Animals: All animal procedures were approved by the British Home Office Animals (Scientific Procedures) Act 1986 (Project License number 70/5516). Male C57BL/6 mice and male Wistar rats were maintained in individual cages under controlled temperature (21-23 °C) with ad libitum access to standard chow (RM1 diet, SDS Ltd, Witham, Essex, UK) and to water. The light cycle was 14 hours light and 10 hours dark with 'dawn' at 07:00, lights full on at 07:30, 'dusk' at 21:00 with lights off at 21:30. These times were fixed in the animal facility.
All animals were handled almost daily for on average nine days prior to the first study. During the acclimatization period, each animal received two saline injections at least two days apart in order to further acclimatize to the procedure on the study days.
Intra-peritoneal (IP) injections: IP injections were administered to mice via a 0.5 ml syringe with a 29-gauge needle (maximum injection volume 0.1 ml). Maximum volume administered IP was 0.1 ml.
Study protocol: C57BL/6 mice (20-35 g) were injected with the peptide under investigation following a 20-hour fast Wistar rats were injected following a 24-hour fast. A pre-weighed quantity of chow was presented immediately after injection. The remaining food was measured at regular time intervals (e.g. 1, 2, 3,4, 6, 8, 24 and 48 hours following injection) and food intake calculated.

The conditions of test [2]: humans; intravenously infused; cited from earlier work.
For test [3] the following is noted: humans; 1.8 mg sc three times daily for 28 days; cited from earlier work.
The conditions of test [4]: rats, cited from earlier work.
The mark [5] stands for this setting: Example 1, 2700 nmol/kg, intervals 0-32 h after injection, vs saline and oxm.

In the case of “D-His1,Ala2,Lys33,Ala38,Ala39,Lys40-lauroyl-oxm(ex15-23)(ex27-33) ([dH]AQGTFTSDYSKYLEEEAVRLFIQWLKNGGPSKNNIAAAK(Lauroyl))”, the food intake result in test [1] (Example 54, 10 nmol/kg) is given as “exception”.

As for “DHis2-Ser2-Asp3-oxm(ex15-23)(ex27-33)-Lys33-Ala38,39-Glu40,41-Lys42-Lauroyl ([dH]SDGTFTSDYSKYLEEEAVRLFIQWLKNGGPSKNNIAAAEEK(Lauroyl)) [23/104]”, in test [1] (Example 57, 6 or 20 nmol/kg), the food intake entry was “markedly decreased cumulative food intake in comparison to the saline control”.

Consider “Oxyntomodulin (HSQGTFTSDYSKYLDSRRAQDFVQWLMNTKRNRNNIA) [oxm, 37 amino acid peptide member of the glucagon superfamily]”, for which the food intake result was “reduced food intake as expected” in test [1] (Example 5, 2700nmol/kg, 0-4 h, vs oxm and saline); “did not quite reach statistical significance” in test [1] (Example 7, 1000 nmol/kg, 0-24 h). In test [1] (Example 9, food intake during the first hour after injection, activity relative to oxm (1400 nmol/kg)), the “Multiples of food inhibition Factor” value is listed as 1. In addition, the appetite result in test [2] is on record as “effective appetite suppressant”. The body weight result in test [3] was “significant reduction of body weight”. Besides, the weight gain result in test [4] (chronic central administration) is recorded as “reduced weight gain”. Besides, the “refeeding after a fast” value in test [4] (intracerebroventricular and injection into paraventricular and arcuate nuclei) is given as “inhibits refeeding after a fast”. Besides, in test [4] (twice daily peripheral injections), the “body weight gain and adiposity” value was “reduced body weight gain and adiposity”.

In the case of “oxm(xx15-18): human oxm with 4 amino acids at positions 15-18 replaced by substitute sequence (HSQGTFTSDYSKYLEEEAAQDFVQWLMNTKRNRNNIA)”, the food intake result in test [1] (setting [5]) is “increased and prolonged inhibition of food intake compared to both saline and oxm”.

With “oxm(xx15-21): human oxm with residues 15-21 replaced by corresponding exendin-4 residues (HSQGTFTSDYSKYLEEEAVRLFVQWLMNTKRNRNNIA)”, the food intake result in test [1] (setting [5]) was “greater and more prolonged appetite suppressant effect”.

B1: oxm(xx27-33): oxm with residues 27 to 33 replaced by the sequence Lys Asn Gly Gly Pro Ser Ser (peptide)
chain 1: HSQGTFTSDYSKYLDSRRAQDFVQWLKNGGPSSNNIA
chain 2: HSQGTFTSDYSKYLDSRRAQDFVQWLKNGGPSSNNIA
Take B1: in test [1] (Example 3, 2700 nmol/kg, 0-24 h, vs oxm and saline), the food intake result was “increased and prolonged inhibition of food intake compared to both saline and oxm”.

B2: oxm(xx15-24): human oxm with residues 15-24 replaced by corresponding exendin-4 residues (peptide)
chain 1: HSQGTFTSDYSKYLEEEAVRLFIEWLMNTKRNRNNIA
chain 2: HSQGTFTSDYSKYLEEEAVRLFIEWLMNTKRNRNNIA
For B2, the food intake entry was “greater and more prolonged appetite suppressant effect; also recorded: more potent effect on feeding than oxm” in test [1] (setting [5]); “reduces food intake only slightly less than exendin over the first 8 hours post-injection” in test [1] (Example 2, 300 nmol/kg, 0-24 h, vs exendin 4 and saline); “the most effective” in test [1] (Example 27, 100 nmol/kg).
